Experimental data published in ChEMBL document CHEMBL3046323, “Photosynthetic Electron Transport Inhibitory and Herbicidal Activities of 2-(N-Acylbenzylamino)-4-methyl-6-fluoroalkyl-1, 3, 5-triazine Derivatives” (J Pestic Sci, 2001).

Key:
Persicaria longiseta [1] = test: Herbicidal activity against Persicaria longiseta at 4 kg/ha treated as soil application at pre-emergence after 3 weeks; format: functional
Persicaria longiseta [2] = test: Herbicidal activity against Persicaria longiseta at 4 kg/ha treated as paddy application at pre-emergence after 3 weeks; format: functional
Pontederia vaginalis = test: Herbicidal activity against Monochoria vaginalis at 4 kg/ha treated as foliar application at post-emergence after 3 weeks; format: functional
[3] = test system: Schoenoplectiella juncoides; test: Herbicidal activity against Schoenoplectiella juncoides var. Hotarui Ohwi at 4 kg/ha treated as foliar application at post-emergence after 3 weeks; format: functional
Digitaria ciliaris [4] = test: Herbicidal activity against Digitaria ciliaris at 4 kg/ha treated as paddy application at pre-emergence after 3 weeks; format: functional
[5] = test system: Echinochloa crus-galli var. crus-galli; test: Herbicidal activity against Echinochloa crus-galli var. crus-galli at 4 kg/ha treated as paddy application at pre-emergence after 3 weeks; format: functional
[6] = test system: Amaranthus blitum subsp. oleraceus; test: Herbicidal activity against Amaranthus blitum subsp. Oleraceus at 4 kg/ha treated as soil application at pre-emergence after 3 weeks; format: functional
Chenopodium album [7] = test: Herbicidal activity against Chenopodium album at 4 kg/ha treated as soil application at pre-emergence after 3 weeks; format: functional
[8] = test system: Echinochloa crus-galli var. crus-galli; test: Herbicidal activity against Echinochloa crus-galli var. crus-galli at 4 kg/ha treated as soil application at pre-emergence after 3 weeks; format: functional
Chenopodium album [9] = test: Herbicidal activity against Chenopodium album at 4 kg/ha treated as paddy application at pre-emergence after 3 weeks; format: functional
Digitaria ciliaris [10] = test: Herbicidal activity against Digitaria ciliaris at 4 kg/ha treated as soil application at pre-emergence after 3 weeks; format: functional
Echinochloa oryzicola = test: Herbicidal activity against Echinochloa oryzicola at 4 kg/ha treated as foliar application at post-emergence after 3 weeks; format: functional
[11] = Inhibition of photosynthetic electron transport in Spinacia oleracea leaf thylakoids assessed as oxygen formation
Rotala indica = test: Herbicidal activity against Rotala indica at 4 kg/ha treated as foliar application at post-emergence after 3 weeks; format: functional

SMILES	Activity (Persicaria longiseta [1])	Activity (Persicaria longiseta [2])	Activity (Pontederia vaginalis)	Activity [3]	Activity (Digitaria ciliaris [4])	Activity [5]	Activity [6]	Activity (Chenopodium album [7])	Activity [8]	Activity (Chenopodium album [9])	Activity (Digitaria ciliaris [10])	Activity (Echinochloa oryzicola)	pI50 [11]	Activity (Rotala indica)
CCC(=O)N(Cc1ccccc1)c1nc(C)nc(C(F)(F)F)n1	91%	100%	26%	0%	76%	76%	91%	91%	76%	100%	91%	0%	–	–
Cc1nc(NCc2ccc(Cl)cc2)nc(C(F)(F)F)n1	–	91%	100%	100%	100%	100%	–	100%	100%	91%	100%	91%	6.97	91%
Cc1nc(NCc2ccccc2)nc(C(F)(F)F)n1	–	76%	91%	91%	91%	100%	–	100%	76%	76%	91%	76%	–	76%
Cc1nc(NCc2ccc(Cl)cc2)nc(C(F)F)n1	–	–	–	–	–	–	–	–	–	–	–	–	6.62	–
CCCc1nc(C)nc(N(C=O)Cc2ccc(Cl)cc2)n1	100%	100%	76%	1%	1%	100%	76%	91%	51%	100%	91%	0%	–	100%
Cc1nc(N(C=O)Cc2ccccc2)nc(C(F)(F)F)n1	91%	100%	26%	0%	76%	76%	76%	100%	76%	100%	76%	0%	–	–
CC(=O)N(Cc1ccccc1)c1nc(C)nc(C(F)(F)F)n1	–	51%	100%	100%	0%	76%	–	100%	0%	100%	1%	100%	–	–
CCCC(=O)N(Cc1ccccc1)c1nc(C)nc(C(F)(F)F)n1	51%	1%	51%	0%	51%	100%	76%	76%	51%	100%	51%	0%	–	26%
Cc1nc(N(Cc2ccccc2)C(=O)C(C)(C)C)nc(C(F)(F)F)n1	–	–	–	–	–	–	–	–	26%	–	51%	–	–	–
Cc1nc(C(F)F)nc(N(C=O)Cc2ccc(Cl)cc2)n1	100%	100%	100%	76%	76%	76%	100%	100%	100%	100%	91%	91%	–	100%
Cc1nc(N(C=O)Cc2ccc(Cl)cc2)nc(C(F)(F)F)n1	100%	100%	100%	91%	91%	100%	91%	100%	100%	100%	91%	91%	–	100%
Cc1nc(N(C=O)Cc2ccc(Cl)cc2)nc(C(F)(F)C(F)(F)F)n1	100%	100%	100%	100%	76%	100%	100%	91%	100%	100%	100%	76%	–	100%
CCNc1nc(Cl)nc(NC(C)C)n1 [ATRAZINE]	–	91%	100%	76%	–	–	–	–	–	91%	–	91%	–	–
CCNc1nc(Cl)nc(NCC)n1 [SIMAZINE]	–	–	–	–	–	–	91%	91%	26%	–	51%	–	6.28	–
